Patent US20140336248A1, “THERAPEUTIC COMPOSITIONS AND RELATED METHODS OF USE” (priority 2011, published 2014)

What was measured:
Type in all cases: in vivo, mouse
ICR mice [1] = test: Tolerability 1.5, 2.0, 3.0 mg/kg IV in 1% ethanol/4% propylene glycol/5% Solutol HS 15 (Example I); details: for Body weight: FIG. 2
Description: Injectable salinomycin compositions were prepared as follows: A) 0.6 mg/mL composition: 3.03 mg of salinomycin sodium was added to 50 μL ethanol and vortexed for 1 minute to yield a clear solution. 200 μL of propylene glycol was then added and vortexed for 1 minute, yielding a clear solution. To this solution was next added 250 μL Solutol® HS 15, with vortexing for 1 minute and sonicating for 1 minute, to yield a clear solution.
(§1) Eight male ICR mice (Sino-British SIPPR/BK Lab Animal Ltd, Shanghai, China) were assigned to control and treatment groups. […] The individual animal number marked on the tail, and study number comprised a unique identification for each animal. Animal identification was verified during the course of the study. The animals were housed two per cage in stainless steel suspended cage in an environmentally controlled room. SLACOM (Rodent Diet #20110615029, Shanghai SLAC Laboratory Animal Co. Ltd.) was available ad libitum. Temperature and humidity were monitored and recorded twice daily.
(§2) Each composition and the vehicle (control) were administered once daily to each of two mice via intravenous bolus injection for 5 consecutive days. The dose levels for the treated groups and the control group are in the below table. Individual doses were based on the most recent body weight.
(§3) Body weights for all animals were measured and recorded at receipt, prior to randomization, and once daily during the study. Body weight change was calculated for mean value of animals relative to Day 1 mean body weight value.

ICR mice [2] = test: Tolerability 5.0, 10.0 mg/kg orally in 1% ethanol/4% propylene glycol/5% Solutol HS 15 (Example J)
Description: Fompositions for oral administration were prepared as follows: A) 1.0 mg/mL composition: 5.05 mg of salinomycin sodium was added to 50 μL ethanol and vortexed for 1 minute to yield a clear solution. 200 μL of propylene glycol was then added and vortexed for 1 minute, yielding a clear solution. To this solution was next added 250 μL Solutol® HS 15, with vortexing for 1 minute and sonicating for 1 minute, to yield a clear solution.
(§4) Six male ICR mice (Sino-British SIPPR/BK Lab Animal Ltd, Shanghai, China) were assigned to control and treatment groups. […] The individual animal number marked on the tail, and study number comprised a unique identification for each animal. Animal identification was verified during the course of the study. The animals were housed two per cage in stainless steel suspended cage in an environmentally controlled room. SLACOM (Rodent Diet #20110615029, Shanghai SLAC Laboratory Animal Co. Ltd.) was available ad libitum. Temperature and humidity were monitored and recorded twice daily.
Each composition and the vehicle (control) were administered once daily to each of two mice via oral gavage for 5 consecutive days. The dose levels for the treated groups and the control group are in the below table. Individual doses were based on the most recent body weight.
as §3

ICR mice [3] = test: Tolerability IV in 10% ethanol/10% Solutol HS 15, 5 days (Example K); details: for Clinical observations: post dosage
Description: Injectable salinomycin compositions were prepared as follows: 0.6 mg/mL stock solution: 1.2 mg of salinomycin sodium was added to 200 μL ethanol and vortexed for 2 minutes and sonicated for 30 seconds to yield a clear solution. To this solution was next added 200 μL Solutol® HS 15, with vortexing for 2 minutes. Finally, 1.6 mL water was added to produce a clear stock solution of 0.6 mg/mL salinomycin sodium.
as §4, §2, §3

ICR mice [4] = test: Tolerability IV in 5% ethanol/15% Solutol HS 15, 5 days (Example L); details: for Clinical observations: one animal
Description: Injectable salinomycin compositions were prepared as follows: 0.6 mg/mL stock solution: 1.2 mg of salinomycin sodium was added to 100 μL ethanol and vortexed for 2 minutes and sonicated for 2 minutes to yield a clear solution. To this solution was next added 300 μL Solutol® HS 15, with vortexing for 1 minute. Finally, 1.6 mL water was added to produce a clear stock solution of 0.6 mg/mL salinomycin sodium.
as §4, §2, §3

ICR mice [5] = test: Tolerability 0.1, 0.3, 1.0 mg/kg IV in 3% propylene glycol/10% Solutol HS 15, 4 days (Example O); details: for Body weight: FIG. 8
Description: as §1, with “Using the techniques described above in Example A, an aqueous vehicle comprising 3% propylene glycol (v/v) and 10% Solutol® HS 15 (v/v) was prepared. An appropriate amount of salinomycin sodium was dissolved into the vehicle to make solutions having concentrations of 0.02, 0.06, and 0.2 mg/mL. Eight male” for “Eight male”, “animal number was marked on” for “animal number marked on”
(§5) Each composition and the vehicle (control) were administered once daily to each of two mice via intravenous bolus injection for 4 consecutive days. The dose levels for the treated groups and the control group are in the below table. Individual doses were based on the most recent body weight.
as §3

ICR mice [6] = test: Tolerability 0.03, 0.1, 0.3, 1.0 mg/kg IV in 5% ethanol/10% propylene glycol/20% Solutol HS 15, 4 days (Example Q); details: 5% ethanol/10% propylene glycol/20% Solutol HS 15 (heading)
Description: as §1, with “Using the techniques described above in Example A, an aqueous vehicle comprising 5% ethanol (v/v), 10% propylene glycol (v/v), and 10% Solutol® HS 15 (v/v) was prepared. An appropriate amount of salinomycin sodium was dissolved into the vehicle to make solutions having concentrations of 0.006, 0.02, 0.06, and 0.2 mg/mL. Ten male ICR” for “Eight male ICR”, “animal number was marked on” for “animal number marked on”
as §5, §3

CC[C@@H](C(=O)[C@@H](C)[C@@H](O)[C@H](C)[C@@H]1O[C@@H]([C@@H](CC)C(=O)O)CC[C@@H]1C)[C@H]1O[C@]2(C=C[C@@H](O)[C@]3(CC[C@@](C)([C@H]4CC[C@](O)(CC)[C@H](C)O4)O3)O2)[C@H](C)C[C@@H]1C [salinomycin sodium]
Clinical observations (ICR mice [1]; 1.5 mg/kg IV once daily 5 days): decreased activity levels | Recovery (ICR mice [1]; 1.5 mg/kg IV once daily 5 days): returned to normal function at the conclusion of the study | Body weight (ICR mice [1]; 2 mg/kg IV once daily 5 days): lost weight | Clinical observations (ICR mice [1]; 2.0 mg/kg IV once daily 5 days, post dosage): decreased activity and rapid breathing | Mortality (ICR mice [1]; 2.0 mg/kg IV once daily 5 days, two mice): One of the animals dosed at 2.0 mg/kg was found dead on day 4 | Clinical observations (ICR mice [1]; 3.0 mg/kg IV once daily 5 days, after dosing): decreased activity, rapid breathing and loss of reflex activity | Body weight (ICR mice [1]; 1.5 and 3.0 mg/kg IV once daily 5 days): stable | Abnormalities detected (ICR mice [2]; 5, 10 mg/kg oral gavage once daily 5 days, 1% ethanol/4% propylene glycol/5% Solutol HS 15): no abnormalities | Body weight change relative to Day 1 (ICR mice [2]; 5, 10 mg/kg oral gavage once daily 5 days, 1% ethanol/4% propylene glycol/5% Solutol HS 15, FIG. 3): all groups added weight | Maximum oral tolerated dosage (ICR mice [2]; oral gavage once daily 5 days, male ICR mice): at least 10 mg/kg | Clinical observations (ICR mice [3]; 0.1 mg/kg IV once daily 5 days): decreased activity (e.g., more time spent laying prostrate), rapid breathing, and partially-closed eyelids | Clinical observations (ICR mice [3]; 0.3 mg/kg IV once daily 5 days): decreased activity levels, partially-closed eyelids, and skin cold to the touch | Body weight change relative to Day 1 (ICR mice [3]; 0.1, 0.3 mg/kg IV once daily 5 days, FIG. 4): all groups added weight | Clinical observations (ICR mice [4]; 0.1 mg/kg IV once daily 5 days): decreased activity immediately after dosing on day 1 | Clinical observations (ICR mice [4]; 0.3 mg/kg IV once daily 5 days): hypersensitivity to touch after dosing on day 1 | Body weight change relative to Day 1 (ICR mice [4]; 0.1, 0.3 mg/kg IV once daily 5 days, FIG. 5): all groups added weight | Clinical observations (ICR mice [5]; 0.1 mg/kg IV once daily 4 days): no abnormalities | Clinical observations (ICR mice [5]; 0.3 mg/kg IV once daily 4 days, after initial administration, no abnormalities on days 2, 3, 4): slight decrease in activity | Body weight (ICR mice [5]; 1 mg/kg IV once daily 4 days): decreased steadily | Clinical observations (ICR mice [5]; 1.0 mg/kg IV once daily 4 days, no abnormalities on days 2, 3, 4): decreased activity and leaning | Body weight (ICR mice [5]; 0.1 and 0.3 mg/kg IV once daily 4 days): remained relatively stable | Clinical observations (ICR mice [6]; 0.03 mg/kg IV once daily 4 days): no abnormalities | Clinical observations (ICR mice [6]; 0.1 mg/kg IV once daily 4 days, after administration, no abnormalities on days 2, 3, 4): decreased activity and discolored urine (red) | Clinical observations (ICR mice [6]; 0.3 mg/kg IV once daily 4 days, after administration, no abnormalities on days 2, 3, 4): decreased activity and discolored urine (red) | Mortality (ICR mice [6]; 1.0 mg/kg IV): died shortly after administration | Body weight (ICR mice [6]; each group surviving administration, IV once daily 4 days, FIG. 10): relatively stable
